# From publication PMC11674305, “Inhibition of Neural Crest Cell Migration by Strobilurin Fungicides and Other Mitochondrial Toxicants” (Cells, 2024)
# What was measured:
# [1] = tested on: neural crest cells (NCC); experiment: Transwell migration assay (FBS chemoattractant, 6 h); type: cell-based, human; conditions: glucose or galactose medium
# Experimental: Cells were seeded at a density of 50,000 cells/well (150,000 cells/cm^2) into the upper chamber (insert) of the 96-well transwell plates (pore size 8 μm, polycarbonate membrane, Corning, Glendale, AZ, USA). The cells were stimulated to migrate through the membrane by medium supplemented with 5% of the chemoattractant fetal bovine serum (FBS) (PAA Laboratories, Pasching, Austria) in the lower chamber (reservoir). For testing of migration inhibition upon compound treatment, compounds were used at a concentration of BMC10 (V) of prior cMINC testing. Three technical replicates per condition were used. As a control for “unstimulated” migration, medium without any chemoattractant was tested. As an endpoint specific control for “inhibited” migration, CytoD with a concentration of 200 nM was used. After 6 h incubation time, the medium was aspirated, and reservoirs were washed with DPBS. Afterwards, reservoirs were filled with EDTA dissociation solution (DPBS supplemented with 0.1% 0.5 M EDTA UltraPure pH 8.0 (Thermo Fisher Scientific, Waltham, MA, USA), and 0.18% NaCl) containing 0.25 μL/mL calcein-AM and incubated for 30 min at 37 °C. The plates were then centrifuged at 300× g for 5 min (1200 rpm, Heraeus Multifuge 1 S-R, ThermoScientific) to remove migrated cells from the membrane. The tray with 96 wells of permeable inserts was removed, and the receiver plate was measured in the spectrophotometer (TECAN, Männedorf, Switzerland) with an emission wavelength of 520 nm. After subtraction of the blank values, the number of migrated cells was normalized to that of cells stimulated with FBS.
# To perform the experiments under mitochondria-dependent conditions, the cells were handled exactly in the same way, but the medium was adapted. The N2-S medium was adjusted, so that no glucose was present but galactose. The medium consisted of SILAC^TM Advanced DMEM/-F12 FLEX (Gibco/Fisher Scientific, Hampton, NH, USA), 15 μg/mL insulin, 400 μM GlutaMAX, 0.7 mM L-Arginine, 0.5 mM L-Lysine, 21.5 µM Phenol Red, 20 nM progesterone, 100 μM putrescine and 30 nM selenium, 92.5 μg/mL apotransferrin, 4.7 mg/mL galactose (18 mM). The cytokines 20 ng/mL EGF and 20 ng/mL FGF2 were always freshly added to each run.
# [2] = tested on: neural crest cells (NCC); experiment: Seahorse oxygen consumption rate (mitochondrial stress test); type: cell-based, human
# Experimental: The Seahorse bioanalyzer simultaneously measures cellular oxygen consumption rates (OCR) and extracellular acidification rates (ECAR). Therefore, NCCs were seeded at least two days prior to the assays at a density of 80,000 cells/well on Seahorse XF96 V3 PS Cell Culture Microplates (Agilent, Santa Clara, CA, USA) in either glucose medium or galactose medium. After 24 h, the medium was exchanged. For the real-time ATP production rate and mitochondrial stress assay, the cartridge was hydrated at 0% CO2 and 37 °C, and the seahorse was turned on to stabilize the temperature one day prior. The medium was changed to Seahorse XF DMEM Medium (Agilent, Santa Clara, CA, USA) supplemented with 2 mM L-glutamine, 1 mM pyruvate and 18 mM glucose or galactose 1 h before the start of the assays. Directly before the start of the assay, the medium was exchanged again. The sensor cartridge was loaded with the test compounds anchored to the BMC10 (V) of the cMINC screen and the recommended concentrations of calibration compounds for a mitochondrial stress test. These were 5 μM oligomycin, 15 μM carbonyl cyanide p-trifluoro methoxyphenylhydrazone (FCCP) and 5 μM rotenone plus 5 μM antimycin A. Additionally, 1 μg/mL H-33342 was added to the rotenone and antimycin A injection to perform afterwards a cell count (Cellomics, Waltham, MA, USA), to which the data were normalized. Six technical replicates were used for control conditions, and three technical replicates were used for other samples. The software Seahorse Analytics (Agilent, Santa Clara, CA, USA) was used for the evaluation (https://seahorseanalytics.agilent.com (accessed on 30 October 2024)).
# [3] = biological target: T1, complex III (cIII) (Homo sapiens, UniProt P00156); experiment: Electron transport chain complex activity in permeabilized NCC (Seahorse); type: cell-based; conditions: 60 μM (BMC10(V) of cMINC)
# T1 construct: endogenous in cells; host or cells: neural crest cells (NCC), digitonin-permeabilized
# Excerpt: (§1) Magel et al. (2024): Inhibition of neural crest cells migration by strobilurin fungicides
# (§2) Figure S9. Inhibition of electron transport chain complexes by picoxystrobin in neural crest […]
# (§3) NCC were exposed to the BMC10(V) of the cMINC assay (60 μ M). The grey area indicates th e non-significant range of the assay (≤ 25% change). The effect on complex IV (cIV) was non-significant (green bar). The purple bar indicates complex III (cIII) inhibition. Yellow bars […]
# (§4) that for these assays, the electrons have to pass cIII to reach cIV (oxygen consumption), i.e. electrons from cI (or cII) cannot be used for the reduction of oxygen, as they need to flow through cIII (which is blocked). The pattern of inhibition is indicative of cIII as illustrated earlier (Delp et al., 2019; van der Stel et al., 2020).
# (§5) To investigate the inhibition pattern of picoxystrobin, NCC were permeabilized and complex-specific substrates and inhibitors were sequentially injected as described earlier (Delp et al., 2019). In detail, cells were permeabilized with MAS buffer (220 mM mannitol, 1 mM ADP, 70 mM sucrose, 10 mM KH2PO4, 5 mM MgCl2, 2 mM HEPES, 1 mM EGTA, 4 mg/ml fatty acid-free BSA, pH = 7.2) supplemented with 25 μ g/mL digitonin. Seahorse measurements were started directly afterwards, and basal OCRs were assessed for internal normalization. Then picoxystrobin was injected and cI activity was assessed. […]
# [4] = tested on: complex I (cI); experiment: as above; type: cell-based, human; conditions: 60 μM, due to block of cIII
# Excerpt: as §1, §2, §3, §4
# as §5, with “assessed. For this, cII was inhibited (5 mM malonat) and substrates for cI (2 mM […], 2.5 mM malic acid, 5 mM pyruvic acid)” for “assessed.”
# (§6) were added. […] Next, cI was […]
# (§7) inhibited (0.5 μ M rotenone) and substrates of cIII (250 μM duroquinol ) were added. At this step, cIII inhibition data for cIII were obtained. In the case of a cI inhibition (e.g. by rotenone), […]
# (§8) To assess cII activity, cI was inhibited and the substrate of cII (10 mM succinic acid) was added.
# (§9) Lastly, to assess cIV activity, cII was inhibited and the substrates of cIV (125 μ M TMPD, 2 mM ascorbic acid) were added. Data were compared to the solvent control. Details and assay validation have been provided earlier (Delp et al., 2019; van der Stel et al., 2020). […]
# [5] = tested on: complex II (cII); experiment: as above; type: cell-based, human; conditions: 60 μM, due to block of cIII
# Excerpt: as §1, §2, §3, §4
# as §5, with “assessed. For this, cII was inhibited (5 mM malonat) and substrates for cI (2 mM […], 2.5 mM malic acid, 5 mM pyruvic acid)” for “assessed.”
# as §6, §7, §8, §9
# [6] = tested on: complex IV (cIV); experiment: as above; type: cell-based, human; conditions: 60 μM (BMC10(V) of cMINC)
# Excerpt: as §1, §2, §3, §4
# as §5, with “assessed. For this, cII was inhibited (5 mM malonat) and substrates for cI (2 mM […], 2.5 mM malic acid, 5 mM pyruvic acid)” for “assessed.”
# as §6, §7, §8, §9
smiles,measurement,setting,value
"CO/C=C(/C(=O)OC)c1ccccc1COc1cccc(C(F)(F)F)n1 [Picoxystrobin, picoxystrobin]",concentration at which transwell migration was inhibited,[1],≥ 5 µM
same,lowering of OCR POD by 24 h pre-treatment,[2]; 24 h pre-treatment vs acute exposure,10 fold
same,"BMC25 (OCR), POD","[2]; 24 h pre-treatment, galactose medium",0.4 µM
same,effect on complex III (cIII),[3],inhibition of complex III
same,effect on complex I (cI),[4],apparent inhibition
same,effect on complex II (cII),[5],apparent inhibition
same,effect on complex IV (cIV),[6],non-
